In patent US20240182531A1, “KV1.3 Blockers” (priority 2021, published 2024):
Where a SMILES comes first, the peptide text is derived from it. Bridges are numbered along the chain shown (N, C = ends). [ ]: non-standard residue; d: D form. Nle = CCCC[C@H](N)C(=O)O

Assays:
[1] = target: Rat whole blood (Rattus norvegicus, UniProt P15384); assay type: cell-based; details: IL-17A release, thapsigargin, 24 Hr, at least 2 replicates
[2] = target: T1, human Kv1.1 (Homo sapiens, UniProt Q09470); assay: cell-based; details: ratio of patch clamp IC50 values
T1 construct: expressed in transfected cells; host or cells: CHO
T1 sequence (Q09470 whole entry): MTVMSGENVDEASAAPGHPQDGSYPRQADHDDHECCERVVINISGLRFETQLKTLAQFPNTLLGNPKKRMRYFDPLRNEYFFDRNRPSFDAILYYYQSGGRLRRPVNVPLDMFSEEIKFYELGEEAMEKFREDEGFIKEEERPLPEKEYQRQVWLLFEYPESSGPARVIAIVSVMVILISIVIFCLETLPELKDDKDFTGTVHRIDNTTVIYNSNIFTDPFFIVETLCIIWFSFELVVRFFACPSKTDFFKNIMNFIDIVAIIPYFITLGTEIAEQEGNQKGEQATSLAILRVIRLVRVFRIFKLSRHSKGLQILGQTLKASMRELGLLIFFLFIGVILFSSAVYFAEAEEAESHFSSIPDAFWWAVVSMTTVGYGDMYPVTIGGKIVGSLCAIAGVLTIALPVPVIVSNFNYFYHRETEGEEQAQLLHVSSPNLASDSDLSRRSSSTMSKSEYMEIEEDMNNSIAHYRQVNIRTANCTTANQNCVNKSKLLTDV

[3] = target: T2, human Kv1.6 (Homo sapiens, UniProt P17658); assay: cell-based; details: ratio of patch clamp IC50 values
T2 construct: expressed in transfected cells; host or cells: CHO
T2 sequence (P17658 whole entry): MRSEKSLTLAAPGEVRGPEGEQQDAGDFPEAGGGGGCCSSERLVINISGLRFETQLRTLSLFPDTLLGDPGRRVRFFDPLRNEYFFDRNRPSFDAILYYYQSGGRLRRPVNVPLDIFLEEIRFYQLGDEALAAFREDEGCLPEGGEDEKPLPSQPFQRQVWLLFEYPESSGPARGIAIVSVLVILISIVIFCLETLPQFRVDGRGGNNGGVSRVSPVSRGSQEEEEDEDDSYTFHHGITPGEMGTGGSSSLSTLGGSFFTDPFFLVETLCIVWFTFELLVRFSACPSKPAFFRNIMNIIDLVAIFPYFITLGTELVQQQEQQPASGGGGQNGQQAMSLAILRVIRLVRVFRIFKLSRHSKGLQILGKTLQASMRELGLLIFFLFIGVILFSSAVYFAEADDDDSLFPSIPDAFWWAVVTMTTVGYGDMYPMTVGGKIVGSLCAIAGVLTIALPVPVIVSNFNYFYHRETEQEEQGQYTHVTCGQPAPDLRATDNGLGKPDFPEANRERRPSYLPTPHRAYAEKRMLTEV

[4] = target: T3, human Kv1.2 (Homo sapiens, UniProt P16389); assay: cell-based; details: ratio of patch clamp IC50 values
T3 construct: expressed in transfected cells; host or cells: CHO
T3 sequence (P16389 whole entry): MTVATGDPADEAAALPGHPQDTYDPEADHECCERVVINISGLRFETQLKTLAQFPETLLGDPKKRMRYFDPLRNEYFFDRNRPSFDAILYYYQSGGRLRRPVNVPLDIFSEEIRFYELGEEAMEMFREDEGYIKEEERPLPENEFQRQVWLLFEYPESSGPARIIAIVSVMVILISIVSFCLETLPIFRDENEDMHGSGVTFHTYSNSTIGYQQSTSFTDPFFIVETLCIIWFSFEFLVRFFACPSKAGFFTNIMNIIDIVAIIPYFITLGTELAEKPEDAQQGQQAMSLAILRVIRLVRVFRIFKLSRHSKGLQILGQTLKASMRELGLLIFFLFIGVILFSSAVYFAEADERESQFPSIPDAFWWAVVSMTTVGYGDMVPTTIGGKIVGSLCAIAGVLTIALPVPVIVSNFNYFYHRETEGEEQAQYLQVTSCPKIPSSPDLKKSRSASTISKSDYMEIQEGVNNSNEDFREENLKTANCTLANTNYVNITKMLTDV

Sequence of Rat whole blood (P15384 whole entry): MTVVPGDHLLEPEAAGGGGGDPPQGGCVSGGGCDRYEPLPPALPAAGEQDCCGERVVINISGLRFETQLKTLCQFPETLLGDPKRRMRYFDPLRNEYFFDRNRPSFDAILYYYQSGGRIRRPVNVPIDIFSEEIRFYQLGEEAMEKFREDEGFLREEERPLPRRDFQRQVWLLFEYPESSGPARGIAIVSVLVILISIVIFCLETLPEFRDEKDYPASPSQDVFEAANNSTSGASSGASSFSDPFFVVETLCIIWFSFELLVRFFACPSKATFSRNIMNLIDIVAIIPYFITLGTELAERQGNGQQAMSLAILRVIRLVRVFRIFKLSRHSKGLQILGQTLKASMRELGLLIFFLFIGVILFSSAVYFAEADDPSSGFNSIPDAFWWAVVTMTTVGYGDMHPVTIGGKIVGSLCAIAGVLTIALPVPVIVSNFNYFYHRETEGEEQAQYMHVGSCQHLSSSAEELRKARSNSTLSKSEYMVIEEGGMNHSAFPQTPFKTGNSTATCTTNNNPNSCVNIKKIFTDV

Structure (SMILES) | IC50 [1] [pM] | Selectivity ratio Kv1.1/Kv1.3 [2] | Selectivity ratio Kv1.6/Kv1.3 [3] | Selectivity ratio Kv1.2/Kv1.3 [4]
CC[C@H](C)[C@@H]1NC(=O)[C@H](C)NC(=O)[C@H](CCCCN)NC(=O)[C@H](CC(C)C)NC(=O)[C@@H]2CSSC[C@@H](C(=O)N[C@@H](Cc3ccc(O)cc3)C(=O)N3CCC[C@H]3C(=O)N[C@@H](CCCNC(=N)N)C(N)=O)NC(=O)[C@H](Cc3c[nH]cn3)NC(=O)[C@@H]3CSSC[C@H](NC(=O)[C@H](CCC(=O)O)NC(=O)[C@H](C(C)C)NC(=O)[C@H](CO)NC(=O)[C@H](C)NC(=O)[C@H](CO)NC(=O)[C@@H](NC(=O)[C@H](CCCNC(=N)N)NC(=O)[C@H](CCSC)NC(=O)[C@H](CC(=O)O)NC(=O)[C@H](CCSC)NC(=O)[C@@H](N)CC(N)=O)CSSC[C@H](NC(=O)[C@H](CCCCN)NC(=O)CNC(=O)[C@H](Cc4ccccc4)NC(=O)[C@H]([C@@H](C)CC)NC(=O)[C@H](CO)NC(=O)CNC1=O)C(=O)N[C@@H](CCSC)C(=O)N[C@@H](CC(N)=O)C(=O)N[C@@H](CCCCN)C(=O)N[C@@H](CCCCN)C(=O)N3)C(=O)N[C@@H](CCCCN)C(=O)N[C@@H](CCC(N)=O)C(=O)N[C@@H](CCCCN)C(=O)N2 [compound 41] (H-NMDMRCSASVECKQKCLKAIGSIFGKCMNKKCHCYPR-NH2; disulfide 6-27, 12-32, 16-34) | 770 | >16100 | >16100 | 1816
CCCC[C@@H]1NC(=O)[C@@H]2CSSC[C@H](NC(=O)[C@H](CCCNC(=N)N)NC(=O)[C@H](CCCC)NC(=O)[C@H](CC(=O)O)NC(=O)[C@H](CCCC)NC(=O)[C@@H](N)CC(N)=O)C(=O)N[C@@H](CO)C(=O)N[C@@H](Cc3c[nH]cn3)C(=O)N[C@@H](CO)C(=O)N[C@@H](C(C)C)C(=O)N[C@@H](CCC(=O)O)C(=O)N[C@H]3CSSC[C@H](NC(=O)[C@H](CCCCN)NC(=O)[C@H](CCCCN)NC(=O)[C@H](CC(N)=O)NC1=O)C(=O)N[C@@H](CCCCN)C(=O)N[C@H](C(=O)N[C@@H](Cc1ccc(O)cc1)C(=O)N1CCC[C@H]1C(=O)N[C@@H](CCCNC(=N)N)C(N)=O)CSSC[C@H](NC(=O)[C@H](CCCCN)NC(=O)[C@H](CCC(N)=O)NC(=O)[C@H](CCCCN)NC3=O)C(=O)N[C@@H](CC(C)C)C(=O)N[C@@H](CCCCN)C(=O)N[C@@H](C)C(=O)N[C@@H]([C@@H](C)CC)C(=O)NCC(=O)N[C@@H](CO)C(=O)N[C@@H]([C@@H](C)CC)C(=O)N[C@@H](Cc1ccccc1)C(=O)NCC(=O)N[C@@H](CCCCN)C(=O)N2 [compound 51] (H-N[Nle]D[Nle]RCSHSVECKQKCLKAIGSIFGKC[Nle]NKKCKCYPR-NH2; disulfide 6-27, 12-32, 16-34) | 830 | >5600 | 1134 | 1438
CCCC[C@@H]1NC(=O)[C@@H]2CSSC[C@H](NC(=O)[C@H](CCCNC(=N)N)NC(=O)[C@H](CCCC)NC(=O)[C@H](CC(=O)O)NC(=O)[C@@H](N)CCCC)C(=O)N[C@@H](CO)C(=O)N[C@@H](C)C(=O)N[C@@H](CO)C(=O)N[C@@H](C(C)C)C(=O)N[C@@H](CCC(=O)O)C(=O)N[C@H]3CSSC[C@H](NC(=O)[C@H](CCCCN)NC(=O)[C@H](CCCCN)NC(=O)[C@H](CC(N)=O)NC1=O)C(=O)N[C@@H](CCCCN)C(=O)N[C@H](C(=O)N[C@@H](Cc1ccc(O)cc1)C(=O)N1CCC[C@H]1C(=O)N[C@@H](CCCNC(=N)N)C(=O)O)CSSC[C@H](NC(=O)[C@H](CCCCN)NC(=O)[C@H](CCC(N)=O)NC(=O)[C@H](CCCCN)NC3=O)C(=O)N[C@@H](CC(C)C)C(=O)N[C@@H](CCCCN)C(=O)N[C@@H](C)C(=O)N[C@@H]([C@@H](C)CC)C(=O)NCC(=O)N[C@@H](CO)C(=O)N[C@@H]([C@@H](C)CC)C(=O)N[C@@H](Cc1ccccc1)C(=O)NCC(=O)N[C@@H](CCCCN)C(=O)N2 [compound 90] (H-[Nle]D[Nle]RCSASVECKQKCLKAIGSIFGKC[Nle]NKKCKCYPR-OH; disulfide 5-26, 11-31, 15-33) | 550 | >17800 | >17800 | 11034
CC[C@H](C)[C@@H]1NC(=O)[C@H](C)NC(=O)[C@H](CCCCN)NC(=O)[C@H](CC(C)C)NC(=O)[C@@H]2CSSC[C@@H](C(=O)N[C@@H](Cc3ccc(O)cc3)C(=O)N3CCC[C@H]3C(=O)N[C@@H](CCCNC(=N)N)C(=O)O)NC(=O)[C@H](CCCCN)NC(=O)[C@@H]3CSSC[C@H](NC(=O)[C@H](CCC(=O)O)NC(=O)[C@H](C(C)C)NC(=O)[C@H](CO)NC(=O)[C@H](C)NC(=O)[C@H](CO)NC(=O)[C@@H](NC(=O)[C@H](CCCNC(=N)N)NC(=O)[C@H](CCSC)NC(=O)[C@H](CCC(=O)O)NC(=O)[C@H](CCSC)NC(=O)[C@@H](N)CC(N)=O)CSSC[C@H](NC(=O)[C@H](CCCCN)NC(=O)CNC(=O)[C@H](Cc4ccccc4)NC(=O)[C@H]([C@@H](C)CC)NC(=O)[C@H](CO)NC(=O)CNC1=O)C(=O)N[C@@H](CCSC)C(=O)N[C@@H](CC(N)=O)C(=O)N[C@@H](CCCCN)C(=O)N[C@@H](CCCCN)C(=O)N3)C(=O)N[C@@H](CCCCN)C(=O)N[C@@H](CCC(N)=O)C(=O)N[C@@H](CCCCN)C(=O)N2 [compound 20] (H-NMEMRCSASVECKQKCLKAIGSIFGKCMNKKCKCYPR-OH; disulfide 6-27, 12-32, 16-34) |  | >27600 | >27600 | 2093
CC[C@H](C)[C@@H]1NC(=O)[C@H](C)NC(=O)[C@H](CCCCN)NC(=O)[C@H](CC(C)C)NC(=O)[C@@H]2CSSC[C@@H](C(=O)N[C@@H](Cc3ccc(O)cc3)C(=O)N3CCC[C@H]3C(=O)N[C@@H](CCCNC(=N)N)C(=O)O)NC(=O)[C@H](CCCCN)NC(=O)[C@@H]3CSSC[C@H](NC(=O)[C@H](CCC(=O)O)NC(=O)[C@H](C(C)C)NC(=O)[C@H](CO)NC(=O)[C@H](C)NC(=O)[C@H](CO)NC(=O)[C@@H](NC(=O)[C@H](CCCNC(=N)N)NC(=O)[C@H](CCSC)NC(=O)[C@H](CC(=O)O)NC(=O)[C@@H](NC(=O)[C@@H](N)CC(N)=O)[C@@H](C)CC)CSSC[C@H](NC(=O)[C@H](CCCCN)NC(=O)CNC(=O)[C@H](Cc4ccccc4)NC(=O)[C@H]([C@@H](C)CC)NC(=O)[C@H](CO)NC(=O)CNC1=O)C(=O)N[C@@H](CCSC)C(=O)N[C@@H](CC(N)=O)C(=O)N[C@@H](CCCCN)C(=O)N[C@@H](CCCCN)C(=O)N3)C(=O)N[C@@H](CCCCN)C(=O)N[C@@H](CCC(N)=O)C(=O)N[C@@H](CCCCN)C(=O)N2 [compound 19] (H-NIDMRCSASVECKQKCLKAIGSIFGKCMNKKCKCYPR-OH; disulfide 6-27, 12-32, 16-34) |  | >6800 | >6800 | 857
CC[C@H](C)[C@@H]1NC(=O)[C@H](C)NC(=O)[C@H](Cc2ccc(O)cc2)NC(=O)[C@H](CC(C)C)NC(=O)[C@@H]2CSSC[C@@H](C(=O)N[C@@H](Cc3ccc(O)cc3)C(=O)N3CCC[C@H]3C(=O)N[C@@H](CCCNC(=N)N)C(N)=O)NC(=O)[C@H](CCCCN)NC(=O)[C@@H]3CSSC[C@H](NC(=O)[C@H](CCC(=O)O)NC(=O)[C@H](C(C)C)NC(=O)[C@H](CO)NC(=O)[C@H](C)NC(=O)[C@H](CO)NC(=O)[C@@H](NC(=O)[C@H](CCCNC(=N)N)NC(=O)[C@H](CCSC)NC(=O)[C@H](CC(=O)O)NC(=O)[C@H](CCSC)NC(=O)[C@@H](N)CC(N)=O)CSSC[C@H](NC(=O)[C@H](CCCCN)NC(=O)CNC(=O)[C@H](Cc4ccccc4)NC(=O)[C@H]([C@@H](C)CC)NC(=O)[C@H](CO)NC(=O)CNC1=O)C(=O)N[C@@H](CCSC)C(=O)N[C@@H](CC(N)=O)C(=O)N[C@@H](CCCCN)C(=O)N[C@@H](CCCCN)C(=O)N3)C(=O)N[C@@H](CCCCN)C(=O)N[C@@H](CCC(N)=O)C(=O)N[C@@H](CCCCN)C(=O)N2 [compound 57] (H-NMDMRCSASVECKQKCLYAIGSIFGKCMNKKCKCYPR-NH2; disulfide 6-27, 12-32, 16-34) |  | >10300 | >10300 | 514
CC[C@H](C)[C@@H]1NC(=O)[C@H](C)NC(=O)[C@H](CC(C)C)NC(=O)[C@@H]2CSSC[C@@H](C(=O)N[C@@H](Cc3ccc(O)cc3)C(=O)N3CCC[C@H]3C(=O)N[C@@H](CCCNC(=N)N)C(N)=O)NC(=O)[C@H](CCCCN)NC(=O)[C@@H]3CSSC[C@H](NC(=O)[C@H](CCC(=O)O)NC(=O)[C@H](C(C)C)NC(=O)[C@H](CO)NC(=O)[C@H](C)NC(=O)[C@H](CO)NC(=O)[C@@H](NC(=O)[C@H](CCCNC(=N)N)NC(=O)[C@H](CCSC)NC(=O)[C@H](CC(=O)O)NC(=O)[C@H](CCSC)NC(=O)[C@@H](N)CC(N)=O)CSSC[C@H](NC(=O)[C@H](CCCCN)NC(=O)CNC(=O)[C@H](Cc4ccccc4)NC(=O)[C@H]([C@@H](C)CC)NC(=O)[C@H](CO)NC(=O)CNC1=O)C(=O)N[C@@H](CCSC)C(=O)N[C@@H](CC(N)=O)C(=O)N[C@@H](CCCCN)C(=O)N[C@@H](CCCCN)C(=O)N3)C(=O)N[C@@H](CCCCN)C(=O)N[C@@H](CCC(N)=O)C(=O)N[C@@H](CCCCN)C(=O)N2 [compound 58] (H-NMDMRCSASVECKQKCLAIGSIFGKCMNKKCKCYPR-NH2; disulfide 6-26, 12-31, 16-33) |  | >1200 | >1200 | 121
